Values of other authors, collected in patent US6077537A (Warner-Lambert Company, priority 1998, dated 2000).

Settings: relative to parent compound

Cc1ccc(C(=CCN2CCCC2)c2cccc(CCC(=O)O)n2)cc1 [propionic acid analogue of acrivastine]
plasma concentration of principal active metabolite: well below those of parent compound
